According to ChEMBL document CHEMBL2034939, “Structure-based virtual screening of novel inhibitors of the uridyltransferase activity of Xanthomonas oryzae pv. oryzae GlmU” (Eur J Med Chem, 2012):
≈ marks a conversion by molar mass, not a printed value.

Experiments:
[1] = Inhibition of Xanthomonas oryzae pv. oryzae KS-1-21 uridyltransferase domain of GlmU activity by ion-pair reverse-phase HPLC analysis
[2] = tested on: Xanthomonas oryzae pv. oryzae; assay: Antibacterial activity against Xanthomonas oryzae pv. oryzae KS-1-21 after 36 to 48 hrs by broth microdilution assay; type: functional
[3] = Noncompetitive inhibition of Xanthomonas oryzae pv. Oryzae KS-1-21 GlmU using varying concentration of UTP and 500 uM GlcNAc-1-p by Lineweaver-Burk plot analysis
[4] = Noncompetitive inhibition of Xanthomonas oryzae pv. Oryzae KS-1-21 GlmU using 0.25 to 0.05 mM GlcNAc-1-p and 500 uM UTP by Lineweaver-Burk plot analysis
[5] = Uncompetitive inhibition of Xanthomonas oryzae pv. Oryzae KS-1-21 GlmU using 0.25 to 0.05 mM GlcNAc-1-p and 500 uM UTP by Lineweaver-Burk plot analysis
[6] = Competitive inhibition of Xanthomonas oryzae pv. Oryzae KS-1-21 GlmU using varying concentration of UTP and 500 uM GlcNAc-1-p by Lineweaver-Burk plot analysis
[7] = Uncompetitive inhibition of Xanthomonas oryzae pv. Oryzae KS-1-21 GlmU using varying concentration of UTP and 500 uM GlcNAc-1-p by Lineweaver-Burk plot analysis
[8] = Competitive inhibition of Xanthomonas oryzae pv. Oryzae KS-1-21 GlmU using 0.25 to 0.05 mM GlcNAc-1-p and 500 uM UTP by Lineweaver-Burk plot analysis

| SMILES | IC50 [1] | MIC [2] | also measured |
| --- | --- | --- | --- |
| CCN(CC)c1ccc(/C=C(\NC(=O)c2ccccc2)C(=O)N/N=C/c2cc(O)ccc2Br)cc1 | 62.5 µM | > 500 µg/mL |  |
| CCCCCOc1ccc(/C=N/NC(=O)c2nnn(-c3nonc3N)c2CN2CCCCCC2)cc1 | 87.4 µM | > 500 µg/mL |  |
| Cc1cc(OCC(=O)NNC(=O)c2ccc(O)cc2O)cc(C)c1Cl | 23.2 µM | 420 µg/mL (≈ 1150 µM) | Ki [3]: 8.89 µM; Ki [4]: 19.4 µM |
| O=C(CCCCC(=O)NNC(=O)COc1ccc2ccccc2c1)NNC(=O)COc1ccc2ccccc2c1 | 14.2 µM | 302 µg/mL (≈ 557 µM) | Ki [5]: 8.23 µM; Ki [6]: 8.1 µM |
| CCOc1ccc(C(=O)NCCCCCCCNC(=O)c2ccc(OCC)cc2)cc1 | 76.5 µM | > 500 µg/mL |  |
| Cc1ccc(OCC(=O)Nc2ccccc2C(=O)NC2CCCCC2)cc1 | 84.2 µM | > 500 µg/mL |  |
| COc1ccc(C(=O)/C=C/c2cn(CC(O)CN3CCCCC3)c3ccccc23)cc1OC (configuration not stated) | > 100 µM | 82 µg/mL (≈ 183 µM) |  |
| O=c1cc(-c2ccc(O)c(O)c2)oc2cc(O)cc(O)c12 [LUTEOLIN] | 0.81 µM | 186 µg/mL (≈ 651 µM) | Ki [7]: 990 nM; Ki [8]: 440 nM |
